The values below come from patent publication US12226441B2, “Composition for inhibiting intestinal permeability, treating leaky gut related diseases and/or preventing leaky gut related diseases” (priority 2020, dated 2025).

One assay has as its system DSS-induced mice. Put plainly: dextran sulfate sodium salt (DSS) induced abnormal intestinal permeability animal model, serum FITC-dextran. It counts as in vivo, C57BL/6 male mice. The note with it: positive control, 0.5% (v/v) DSS, 200 μM, 14 days, vs negative control. The procedure: The animals used in this experiment were 5-6 week old C57BL/6 male mice (purchased from the National Laboratory Animal Center).
The experiment was performed by an animal model of dextran sulfate sodium salt (DSS) induced abnormal intestinal permeability (Laroui H, Ingersoll S A, Liu H C, Baker M T, Ayyadurai S, et al. (2012) Dextran Sodium Sulfate (DSS) Induces Colitis in Mice by Forming Nano-Lipocomplexes with Medium-Chain-Length Fatty Acids in the Colon. PLOS ONE 7(3): e32084. doi:10.1371/journal.pone.0032084).
The mice were divided into an untreated group (Naive), a negative control group (vehicle: water), a positive control group (5-aminosalicylic acid (5-ASA)) and 3 experiments groups (Sample 15B (Ganoderma extract+red jujube extract+lotus seed extract+lotus seed extract (the weight ratio of the respective herbal raw materials used to obtain the respective extracts is 3:1:1:1))). The mice in the untreated group were not treated in any way. […]
The FITC-dextran content in mouse serum was measured with a multifunctional microplate spectrometer (Molecular Device, FlexStation® 3) as an indicator of intestinal permeability.

The test system of a further assay is OCLN. The assay can be described thus: real-time quantitative PCR of tight junction gene expression in rhamnolipid-induced Caco-2 cells. It counts as cell-based, human. The conditions noted are these: positive control, 50 μM (18.6 μg/mL), rhamnolipid-induced Caco-2, vs negative control. An excerpt:
(§1) Total ribonucleic acid (total RNA) of cells was isolated by Total RNA Purification Kit (GeneMark, Taichung, Taiwan). Using Maxima First Strand cDNA Synthesis Kit (Thermo Fisher Scientific), according to the manufacturer's operating procedures, the obtained total ribonucleic acid subjected to a reverse transcription polymerase chain reaction to reverse-transcript messenger ribonucleic acid (mRNA) into cDNA. Next, the cDNA samples were subjected to a real-time quantitative polymerase chain reaction to determine the expression levels of CLDN3, OCLN and TJP1 mRNA.

The next assay relates to CLDN3. The assay is described as above. Type of assay: cell-based, human. The conditions noted are these: positive control, 50 μM (18.6 μg/mL), rhamnolipid-induced Caco-2, vs negative control.
Excerpt: as §1

The next assay concerns TJP1. The assay is described as above. Type of assay: cell-based, human. The conditions noted are these: positive control, 50 μM (18.6 μg/mL), rhamnolipid-induced Caco-2, vs negative control.
Excerpt: as §1

Assay [1] deals with mice with circadian disruption. Put plainly: circadian disruption (insomnia) animal model, brainwave sleep cycle parameters. Type of assay: in vivo, C57BL/6 male mice. The conditions noted are these: positive control, light-dark cycle 7 hours:7 hours, 2.5 mg/kg orally, Day 4, vs negative control.
Experimental: The animals used in this experiment were 8-week-old C57BL/6 male mice (purchased from the National Laboratory Animal Center).
The mice were subjected to a surgical operation to load electrodes on the skull to record brain waves. After a 7-day recovery period, the mice were reared for 2 weeks under a normal light-dark cycle of 12 hours: 12 hours, and the 24-hour brainwave changes of the mice were recorded as the basic point.
During the feeding, the mice in the negative control group were given the same amount of sterile water, mice in the positive control group were given diazepam (2.5 mg/kg orally), and mice in the experimental group were given 200 mg/kg Sample 15B.
The 24-hour brainwave changes of mice were recorded on Day 4 after the circadian disruption to analyze sleep cycle parameters of the time proportions (%) of the rapid eye movement (REM) and non-rapid eye movement (NREM), etc.

The structures appear in SMILES notation.

`Nc1ccc(O)c(C(=O)O)c1` [5-aminosalicylic acid]: the “serum FITC-dextran concentration (intestinal permeability)” value in the assay on DSS-induced mice is on record as “reduce the serum FITC-dextran concentration”. Consider `COc1ccc2cc3[n+](cc2c1OC)CCc1cc2c(cc1-3)OCO2` [berberine chloride], for which, in the assay with OCLN, the “expression level of OCLN gene” value was “significantly increase”. The “expression level of CLDN3 gene” value with CLDN3 is given as “significantly increase”. For the same compound, the “expression level of TJP1 gene” value in the assay with TJP1 is reported as “significantly increase”. As for `CN1C(=O)CN=C(c2ccccc2)c2cc(Cl)ccc21` [diazepam], the “time proportion of the non-rapid eye movement (NREM)” value in assay [1] is listed as “significantly increase the time proportion of the non-rapid eye movement”.
